Test results published in ChEMBL document CHEMBL1201862, “PubChem BioAssay data set” (2004).
Activity calls are given as the source filed them.

Tests used:
[1] = target: T1, Alkaline phosphatase, tissue-nonspecific isozyme (Homo sapiens, UniProt P05186); assay: human TNAP enzyme inhibitors, SAR follow-up, biochemical, luminescent, dose response (AID 1056)
T1 sequence (P05186 whole entry): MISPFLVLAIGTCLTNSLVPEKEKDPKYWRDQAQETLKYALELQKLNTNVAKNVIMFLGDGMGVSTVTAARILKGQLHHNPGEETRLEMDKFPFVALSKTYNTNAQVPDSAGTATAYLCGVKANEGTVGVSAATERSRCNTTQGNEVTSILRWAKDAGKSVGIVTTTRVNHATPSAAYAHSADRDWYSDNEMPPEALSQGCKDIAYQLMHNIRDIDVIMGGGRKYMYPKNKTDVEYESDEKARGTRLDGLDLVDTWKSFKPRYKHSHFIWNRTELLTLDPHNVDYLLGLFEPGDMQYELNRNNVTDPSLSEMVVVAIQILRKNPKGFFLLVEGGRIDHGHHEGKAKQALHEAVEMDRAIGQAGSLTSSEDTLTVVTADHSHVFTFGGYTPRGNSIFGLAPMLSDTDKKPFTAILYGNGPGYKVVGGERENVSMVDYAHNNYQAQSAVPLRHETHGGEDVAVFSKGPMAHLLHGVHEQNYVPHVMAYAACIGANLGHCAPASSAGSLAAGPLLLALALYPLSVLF

SUMO-activating enzyme = SUMO-activating enzyme (Homo sapiens, UniProt Q9UBT2); assay: SUMOylation inhibitor hit validation, confirmation, SUMOylation inhibitor project, biochemical, AlphaScreen (AID 2018); format: functional
[2] = growth suppression of PTEN-null colon cells, dose response, cell-based, HCT116 PTEN knockout (AID 1047); format: functional;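 also: HCT116 colon tumor cells with PTEN knocked out; cells exposed to compound for 60 hours before readout; potency for loss of cell viability measured by luminescence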
[3] = growth suppression of beta-catenin-knockout colon cells, dose response, cell-based, HCT116, human colon tumor (AID 1045); format: functional;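 also: HCT116 colon tumor cells with beta catenin knocked out; cells exposed to compound for 60 hours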
[4] = Artemis endonuclease inhibitor potency, dose response, biochemical, fluorescence intensity (AID 720701); format: functional;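 also: Artemis endonuclease enzyme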
[5] = target: T2, Runt-related transcription factor 1/Core-binding factor subunit beta (Homo sapiens, UniProt Q01196+Q13951); assay: inhibitors of RUNX1 Runt–CBFb-SMMHC binding, primary screen, biochemical, FRET, Cerulean-Runt, Venus-CBFb-SMMHC, uHTS (AID 1434); format: protein assay;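 also: partner is the CBFb-SMMHC leukemia fusion protein rather than wild-type CBFb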
[6] = target: T2, Runt-related transcription factor 1/Core-binding factor subunit beta; assay: inhibitors of RUNX1 Runt–CBFb-SMMHC binding, biochemical, TR-FRET (AID 1438); format: protein assay
[7] = target: DNA damage-inducible transcript 3 protein (Mus musculus, UniProt P35639); format: functional, Cricetulus griseus
X-box-binding protein 1 = X-box-binding protein 1 (Homo sapiens, UniProt P17861); format: functional, Cricetulus griseus;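 also: confirmatory dose-response counter-screen serving a CHOP assay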
Troponin, cardiac muscle = Troponin, cardiac muscle (Homo sapiens, UniProt P19429+P45379+P63316); assay: Fluorescence-based biochemical high throughput dose response assay for activators of the calcium sensitivity of cardiac Regulated Thin Filaments (RTF). [Related pubchem assays (depositor defined):AID493008, AID493018, AID504382, AID504383]; format: protein-complex assay

Q: For CC(C)NCC(=O)c1ccc(O)c(O)c1, which IC50 [1] is on record?
A: > 100 µM (inactive)

Q: What does the source list for Cn1c(-c2ccc(C=O)s2)nc2c3ccccc3c3ccccc3c21?
A: IC50 (SUMO-activating enzyme): > 100 µM (inactive); EC50 [2]: 25.7 µM (active); EC50 [3]: 24.9 µM (active); IC50 [4]: > 20 µM (inactive)

Q: Which IC50 [5] does the source give for C/C(=N\Nc1nc(-c2cc(C)ccc2C)cs1)c1cc2c(ccc3ccccc32)oc1=O here?
A: > 100 µM (inactive)

Q: What about the IC50 [6] of the same compound?
A: 10.1 µM (active)

Q: For Cc1ccc(NC(=O)c2cc(NC(=O)c3ccco3)ccc2N2CCCCC2)cc1, which “Absolute IC50 (CHOP)” value [7] is on record?
A: 10 µM

Q: And the “Absolute IC50 (XBP1)” value (X-box-binding protein 1)?
A: 10 µM

Q: With O=[N+]([O-])c1ccc(/C=C/C2=NN(c3ccccc3)C(c3ccco3)C2)cc1 (stereo not given) as the compound, how does the EC50 (Troponin, cardiac muscle) read?
A: 397 nM (active)
